Measured values as given in PMC7822874, “Chemoprotective antimalarials identified through quantitative high-throughput screening of Plasmodium blood and liver stage parasites” (Scientific Reports, 2021).
“And” between values parts separate entries of the source, which are not always exact repeats. Identical values can stand only once. Like-named read-outs stand apart in the source and are kept apart here.

Assays:
[1] = test system: T1, Plasmodium falciparum Dd2-attB-ScDHODH (transgenic line expressing yeast DHODH), asexual blood stages; test: organism not typed; design: replicate k of 3 (each line is one of three independent assays; the three lines of one compound and parasite line follow each other)
T1 construct: Dd2-attB-ScDHODH, the transgenic line that expresses yeast DHODH
Experimental: (§1) The overexpression of the fumarate-dependent yeast DHODH confers resistance to compounds that inhibit the parasite mETC, or the parasite DHODH enzyme that depends on ubiquinone provided by the parasite mETC. Assays were performed in three independent assays on a subset of compounds, and differences between the Dd2-attB parental line and the ScDHODH transgenic line were analyzed using two-sided Student’s t-tests.

[2] = test system: T2, Plasmodium falciparum Dd2-attB (parental line), asexual blood stages; test: microbe, parasite or virus in culture; design: replicate k of 3 (each line is one of three independent assays; the three lines of one compound and parasite line follow each other); conditions: n = 1; for Individual replicates / Log AC50 (M): 72 h; for AC50: Plasmodium falciparum, DD2, 72 h
T2 construct: Dd2-attB, the isogenic parental line
Experimental: as §1

[3] = 72 h; n = 1; read-out: Individual replicates / Log AC50 (converted)
[4] = read-out: Individual replicates / Log AC50 (converted)

SMILES	AC50 [1, 3] [M]	Individual replicates / Log AC50 (M) [2]	AC50 [2, 4] [M]	Individual replicates / Log AC50 (M) ([1]; 72 h, n = 1)	AC50 ([1]; 72 h, read-out: Individual replicates / Log AC50 (M) (converted); n = 1)	Individual replicates / Log AC50 (M) ([1]; 72 h; n = 1)	AC50 ([2]; read-out: Individual replicates / Log AC50 (M) (converted))
CN(C)CCCCCNC(=O)c1cccc(-c2cc(O)c3ncccc3c2)c1 [NCGC00247747-01]	1.42e-05	-4.8486 Log AC50 (M)	1.42e-05				
Cc1ccc(NC2=C(c3ccc(C(F)(F)F)cc3)C(=O)c3ccccc32)cc1F [NCGC00107266-02]		-6.3986 Log AC50 (M) and -6.3486 Log AC50 (M) (2×)		-5.2986 Log AC50 (M) and -5.1986 Log AC50 (M) and -5.5486 Log AC50 (M)			
Oc1ccc(COc2cccc3ccccc23)c2cccnc12 [NCGC00183380-01]		-4.7986 Log AC50 (M) and -4.7486 Log AC50 (M)	2e-05		1.59e-05		
CN1CCN(Cc2cc(COCc3ccccc3)c3cccnc3c2O)CC1 [NCGC00052276-02]		-5.1986 Log AC50 (M) and -5.0486 Log AC50 (M)	5.03e-06	-5.2986 Log AC50 (M) (2×) and -4.9486 Log AC50 (M)			
CN(C)C(=O)c1cccc(-c2cc(O)c3ncccc3c2)c1 [NCGC00244525-01]	6.33e-06	-5.2486 Log AC50 (M) and -5.1486 Log AC50 (M)	7.1e-06	-5.1986 Log AC50 (M) and -5.0986 Log AC50 (M)			
COc1ccc(-c2c(-c3cc(N)ccn3)ncn2C)cc1 [NCGC00421914-01]	1.26e-05	-4.7986 Log AC50 (M) and -4.9486 Log AC50 (M)	1.42e-05	-4.9986 Log AC50 (M)			
CC(=O)Nc1cccc(-c2csc(Nc3cc(C)ccn3)n2)c1 [MLS000550799-02]		-4.7486 Log AC50 (M) and -5.0986 Log AC50 (M) and -4.9486 Log AC50 (M)		-4.7486 Log AC50 (M)			
N=C(N)c1cccc(-c2cnc3c(O)ccc(C(=O)O)c3c2)c1 [NCGC00241054-02]	1.42e-05	-4.8986 Log AC50 (M) and -4.9486 Log AC50 (M)	1e-05	-4.7486 Log AC50 (M) and -4.8486 Log AC50 (M)			
COC(=O)c1ccnc2cc(C(OCCN3CCCCC3)c3ccccc3Cl)[nH]c12 (centres unmarked) [NCGC00420857-01]	5.03e-06	-5.2986 Log AC50 (M) and -5.1986 Log AC50 (M)	4.48e-06	-5.0986 Log AC50 (M)			
CCCCN1CCCc2cc(CN(CCCN3CCOCC3)C(=O)Nc3ccc(CC)cc3)ccc21 [NCGC00140595-02]	7.97e-06	-5.0986 Log AC50 (M)	7.97e-06	-5.0486 Log AC50 (M)			
N[C@H]1CCN(c2cnc3c(O)ccc(C(=O)O)c3c2)C1 [NCGC00241041-01]	1.59e-05		1.42e-05				
COc1cc(CN2CCc3nc(N4CCN(c5ncccn5)CC4)ncc3C2)cc(OC)c1OC [NCGC00131437-02]	7.1e-06	-5.3486 Log AC50 (M) and -5.1486 Log AC50 (M)	5.64e-06	-5.1486 Log AC50 (M) and -5.0986 Log AC50 (M)			
Cc1ccc(C(CCN2CCCCC2)c2cc3cccc(C(=O)O)c3[nH]2)cc1 (centres unmarked) [NCGC00389137-01]		-5.5486 Log AC50 (M) and -5.3986 Log AC50 (M) and -5.1486 Log AC50 (M)		-5.3486 Log AC50 (M) and -5.0486 Log AC50 (M)			
O=C(c1ccc(-c2cnc3c(O)cccc3c2)cc1)N1CCNCC1 [NCGC00189507-01]	1e-05	-4.8986 Log AC50 (M) and -4.9986 Log AC50 (M)	1.42e-05	-4.7986 Log AC50 (M)			
CN(C)CC1CCN(C2CCN(C(=O)c3cccc(-c4cc(O)c5ncccc5c4)c3)CC2)CC1 [NCGC00247736-01]		-5.3486 Log AC50 (M) and -4.8486 Log AC50 (M) and -5.1486 Log AC50 (M)		-4.7986 Log AC50 (M) and -5.0486 Log AC50 (M)			
CC(C)c1ccc(Nc2c(-c3ccccn3)nc3ccccn23)cc1 [NCGC00104490-03]	5.64e-06	-5.1986 Log AC50 (M) and -5.1486 Log AC50 (M)	5.64e-06	-5.0986 Log AC50 (M)			
Oc1cc(Nc2ccncc2)cc2cccnc12 [NCGC00183791-01]	2e-05	-4.7486 Log AC50 (M) and -4.7986 Log AC50 (M)	2e-05	-4.7486 Log AC50 (M)			

SMILES	AC50 [1, 3] [M]	Individual replicates / Log AC50 (M) [2]	AC50 [2, 4] [M]	Individual replicates / Log AC50 (M) ([1]; 72 h, n = 1)	AC50 ([1]; 72 h, read-out: Individual replicates / Log AC50 (M) (converted); n = 1)	Individual replicates / Log AC50 (M) ([1]; 72 h; n = 1)	AC50 ([2]; read-out: Individual replicates / Log AC50 (M) (converted))
CC1(C)OB(c2ccc(O)c3ncc(N4CCNCC4)cc23)OC1(C)C [NCGC00241053-01]	7.1e-06	-4.8986 Log AC50 (M) and -5.0486 Log AC50 (M)	8.94e-06	-5.0486 Log AC50 (M) and -4.9986 Log AC50 (M)			
Oc1ccc(CCc2c(F)cccc2F)c2cccnc12 [NCGC00184906-01]	6.33e-06	-5.2486 Log AC50 (M) and -5.2986 Log AC50 (M)	5.64e-06	-5.0486 Log AC50 (M) and -5.1486 Log AC50 (M)			
Oc1ccc(CNc2ccccc2C(F)(F)F)c2cccnc12 [NCGC00184897-01]	1.59e-05	-4.8986 Log AC50 (M) and -4.7986 Log AC50 (M)	1.26e-05	-4.8486 Log AC50 (M) and -4.7486 Log AC50 (M)			
COC(=O)c1ccnc(NCc2ccc(O)c3ncccc23)c1 [NCGC00241031-01]	1.26e-05	-4.8986 Log AC50 (M) and -4.7486 Log AC50 (M)	1.59e-05	-4.7986 Log AC50 (M)			
O=C(O)c1ccnc2cc(-c3nc4ccccc4n3CCN3CCCCC3)sc12 [NCGC00485470-01]	7.1e-06	-5.2986 Log AC50 (M) and -5.1986 Log AC50 (M)	6.33e-06	-5.2486 Log AC50 (M)			
Oc1ccc(CNc2cccc(C(F)(F)F)c2)c2cccnc12 [NCGC00177833-02]	1.59e-05		1.78e-05	-4.7486 Log AC50 (M)			
O=C(O)c1ccc(O)c2ncc(N3CCCNCC3)cc12 [NCGC00241047-01]	1.59e-05	-4.8986 Log AC50 (M) and -4.8486 Log AC50 (M)	1.59e-05	-4.7986 Log AC50 (M)			
Cc1cc(C)nc(NCc2ccc(O)c3ncccc23)c1 [NCGC00241026-01]	2e-05	-4.7986 Log AC50 (M)	1.78e-05	-4.8986 Log AC50 (M)			
Oc1ccc(/C=C/c2ccccc2F)c2cccnc12 [NCGC00184903-01]	6.33e-06	-5.2486 Log AC50 (M) and -5.1486 Log AC50 (M)	6.33e-06	-4.9986 Log AC50 (M) and -5.1986 Log AC50 (M)			
O=C(O)c1ccnc(-n2ncc(C(OCCN3CCCCC3)c3ccc(Cl)cc3)c2-c2ccccc2)c1 (centres unmarked) [NCGC00487049-01]	1.59e-05	-4.7986 Log AC50 (M) and -4.8486 Log AC50 (M)	1.59e-05	-4.7486 Log AC50 (M)			
O=C(NCCCN1CC[S+](=O)([O-])CC1)c1cccc(-c2cc(O)c3ncccc3c2)c1 [NCGC00249378-01]	2e-05					-4.6986 Log AC50 (M)	
CN(C)CCCCCCNC(=O)c1cccc(-c2cc(O)c3ncccc3c2)c1 [NCGC00247743-01]			2e-05				
CCOC(=O)c1ccncc1Nc1nn(CCN2CCC(F)(F)CC2)c2ccc(F)cc12 [NCGC00388588-01]		-4.7486 Log AC50 (M) and -4.7986 Log AC50 (M)	1.59e-05				
Cc1ccc(CN2C(=O)C(O)(CC(=O)c3ccc(C)cc3)c3ccccc32)cc1 (centres unmarked) [NCGC00099997-03]			1.78e-05				
Cc1nn2c(c1-c1ccnn1C(C)C)N(CCCc1ccccc1)CCC2 [NCGC00499719-01]	1.78e-05						
O=C(NC1CC1)c1cccc(-c2cc(O)c3ncccc3c2)c1 [NCGC00247738-01]							1.78e-05
CCOC(=O)CCNc1cc(N2CCc3ccccc3CC2)nc(-c2ccccn2)n1 [NCGC00344626-02]		-5.0486 Log AC50 (M) and -5.0986 Log AC50 (M)	6.33e-06				
